Earlier results on one molecule are cited in US20040224039A1, “Compositions and methods for the treatment of diseases and disorder associated with oxidative damage” (priority 2003, published 2004).

The conditions of the series: following the administration of 500 mg aspirin.

Molecules are shown by their SMILES.

Turning to `CC(=O)Oc1ccccc1C(=O)O` [aspirin, acetylsalicylic acid], the plasma level is 130 µM.
